Values of other authors as cited in patent publication US20220087839A1, “Arterial Drug Eluting Device to Treat Diabetes With Targeted Delivery of Medication” (Becton, Dickinson and Company, priority 2020, published 2022).

What was measured:
glucagon [1] = details: intravenous infusion of 25 micrograms per hour, Type 1 diabetic
human alpha-cells = details: in vitro
[2] = system: beta and alpha cells of the pancreas
[3] = in vivo
glucagon [4] = details: intravenous infusion of 500 micrograms per hour, Type 1 diabetics

## CC[C@H](C)[C@H](NC(=O)[C@@H]1CCCN1C(=O)CNC(=O)[C@H](Cc1ccccc1)NC(=O)[C@H](CC(N)=O)NC(=O)[C@H](CC(N)=O)NC(=O)[C@H](CO)NC(=O)[C@H](CO)NC(=O)[C@H](Cc1c[nH]cn1)NC(=O)[C@@H](NC(=O)[C@H](CC(C)C)NC(=O)[C@H](Cc1ccccc1)NC(=O)[C@H](CC(N)=O)NC(=O)[C@H](C)NC(=O)[C@H](CC(C)C)NC(=O)[C@H](CCCNC(=N)N)NC(=O)[C@H](CCC(N)=O)NC(=O)[C@@H](NC(=O)[C@H](C)NC(=O)[C@@H]1CSSC[C@H](NC(=O)[C@@H](N)CCCCN)C(=O)N[C@@H](CC(N)=O)C(=O)N[C@@H]([C@@H](C)O)C(=O)N[C@@H](C)C(=O)N[C@@H]([C@@H](C)O)C(=O)N1)[C@@H](C)O)C(C)C)C(=O)N[C@@H](CC(C)C)C(=O)N1CCC[C@H]1C(=O)N1CCC[C@H]1C(=O)N[C@H](C(=O)N[C@@H](CC(N)=O)C(=O)N[C@H](C(=O)NCC(=O)N[C@@H](CO)C(=O)N[C@@H](CC(N)=O)C(=O)N[C@H](C(=O)N[C@@H](Cc1ccc(O)cc1)C(N)=O)[C@@H](C)O)C(C)C)[C@@H](C)O [Pramlintide]
Glucagon [1]
  suppression of glucagon spike from a standardized meal: could suppress a glucagon spike from a standardized meal

## leptin
Human alpha-cells
  concentration that could suppress functional response to glucose: 0.625 nmol/L

## somatostatin
[2]
  effect on insulin and glucagon release: inhibit both insulin and glucagon release
[3]
  half life: 3 min
Glucagon [4]
  suppression of glucagon spikes: suppressed glucagon spikes
